In brackets after ≈: the same amount, converted by molar mass. Several values for one entry are separate records, joined by “and”; a condition that tells them apart may be missing. Equal entries are not always repeated. Where two headings read alike, the source gives them in different places.
Legend:
[1] = Stability under light exposure; assay type: physicochemical; details: for effect of light exposure on absorption spectrum: 17.5 μM in DMSO, 5 minutes, 60 W tungsten lamp; for absorbance under 2-hour continuous irradiation at absorption maximum: spectrophotometer beam, 7200 s
Experimental: The effect of exposure to the light beam of a commercial spectrophotometer was tested to mimic the common experimental condition.
One solution of dabcyl and one of Hydrodabcyl, both at 17.5 μM in DMSO prepared in the dark, were exposed for 5 minutes to the light of a common 60 W tungsten lamp.

[2] = Solubility tests in water and buffered aqueous solutions; assay type: physicochemical; details: for solubility: 50 mM NaP buffer, pH 8.0
Text: The excellent solubility of the bare chromophore in aqueous solution already confers to Hydrodabcyl several practical advantages, e.g., aqueous solutions of Hydrodabcyl are easier to prepare and glassware can be more readily cleansed. Nevertheless, in most of applications the chromophores are linked to the molecules of interest. For example, to monitor protease activity chromophores are usually linked to the peptidic substrate. Both dabcyl and Hydrodabcyl can be easily coupled to an amino group through a standard amide bond formation. […] To investigate the behavior of dabcyl and Hydrodabcyl coupled to an amino acid bearing an amino group, dabcyl and Hydrodabcyl were linked to the amino group of a Lys side chain, and the solubility of the Lys-dabcyl and Lys-Hydrodabcyl moieties in a buffered aqueous solution at pH 8 were tested.
Buffered solutions (50 mM sodium phosphate) have been prepared at four different pH: 8.0, 7.0, 6.0 and 5.5, respectively. The amount of Hydrodabcyl required to reach a concentration of 5 mM was immersed in each buffer solution and kept for 1 h at 30° C. in an ultrasonic bath. […] To confirm its solubility, the absorbance of Hydrodabcyl was monitored as function of its concentration. Since the stock solution was too concentrated to be measured directly, three diluted solutions with different concentrations (10 μM, 20 μM and 30 μM) were prepared from each stock solution at pH 8.0, pH 7.0 and pH 6.0. The aliquots have been taken from different part of the volume of the stock solution to test the homogeneity.
To reach complete solubility at pH<6.0, the pH of the stock solution (5 mM range) at pH 7.0 was decreased at the desired value with few drops of 5M HCl. Following gradual acidification of the medium the mM solution of Hydrodabcyl remained clear till pH 4.3. […] At pH<4.3 Hydrodabcyl precipitates.

Absorption spectra = assay type: physicochemical; details: for ε (molar absorbance): 20° C.
Experimental: Double beam Perkin Elmer Lambda 750 UV/Vis spectrophotometer equipped with a thermostated cuvette holder was used to record the absorption spectra over a wavelength range 200-800 nm at 20° C.
The quartz cuvettes with 1 cm light path used were from Hellma.

[3] = Solubility tests in water and buffered aqueous solutions; assay type: physicochemical; details: for appearance in water: about 7 μM
[4] = tested on: circular and linear double-stranded DNA pBR322; assay: Electrophoretic Mobility Shift Assay (EMSA); assay type: binding; details: 24 h incubation, 0, 5, 10, 25, 50 μM, agarose gel
Experimental: The DNA was incubated for 24 hours with various concentrations (0, 5, 10, 25, 50 μM) of (a) doxorubicin and (b) Hydrodabcyl. FIGS. 6a and 6b show the ethidium bromide staining of DNA separated by agarose gel electrophoresis. […] The DNA was incubated for 24 hours with various concentrations (0, 5, 10, 25, 50 μM) of (a) doxorubicin and (b) Hydrodabcyl. FIGS. 7a and 7b show the ethidium bromide staining of DNA separated by agarose gel electrophoresis. […] Circular and linear double-stranded DNA was incubated with various concentrations of Hydrodabcyl and doxorubicin (a known intercalating substance). After 24 h of incubation time, agarose gel electrophoresis was carried out.

[5] = tested on: oocytes of Xenopus laevis; assay: Influence on embryogenesis of injected oocytes; assay type: in vivo; details: conclusion from Table 2
Experimental: Two sorts of labelled molecules were injected into oocytes of Xenopus laevis: • A molecule labelled with monobromobimane (mBBr; a fluorescent dye, which emits light in the absorption spectrum of Hydrodabcyl); the molecule is called Substrate-Bim • A molecule labelled with mBBr and Hydrodabcyl (a fluorescence quencher); the molecule is called Bim-Substrate-Hydrodabcyl The effect on embryogenesis of the molecules injected into the oocytes as described in Example 5 was observed.

CHF = assay: Cytotoxicity assay, CHF; assay type: cell-based; details: incubation for 72 hours, 5 to 100 μM
Experimental: (§1) Three different cell culture types were incubated with various concentrations (from 5 to 100 μM) of Hydrodabcyl.

HT-29 = assay: Cytotoxicity assay, HT-29; assay type: cell-based; details: Homo sapiens, incubation for 72 hours, 5 to 100 μM
Experimental: as §1

EaHy.926 = assay: Cytotoxicity assay, EaHy.926; assay type: cell-based; details: Homo sapiens, EA.hy 926, incubation for 72 hours, 5 to 100 μM
Experimental: as §1

[6] = water, reported [8]; cited from earlier work
[7] = sodium phosphate buffer, aqueous buffer, thermodynamic from solid, read-out: Solubility

Structure (SMILES): CN(C)c1ccc(/N=N/c2ccc(C(=O)O)cc2)cc1 [dabcyl, 4-(4′-dimethylamino-phenylazo)benzoic acid]
- effect of light exposure on absorption spectrum [1]: strongly modify the absorption spectrum
- absorbance under 2-hour continuous irradiation at absorption maximum ([1]; DMSO, 20° C.): constant signal
- time in the dark to recover original spectrum ([1]; after 5 min 60 W tungsten lamp, DMSO, 20° C.): 10 min
- solubility [2, 7]: 541 µM (≈ 146 µg/mL)
- λmax (Absorption spectra; 2×10^−5 M in DMSO at 20° C.): 451 nm
- appearance in water ([3]; water): precipitation

Structure (SMILES): COc1cccc2c1C(=O)c1c(O)c3c(c(O)c1C2=O)C[C@@](O)(C(=O)CO)C[C@@H]3O[C@H]1C[C@H](N)[C@H](O)[C@H](C)O1 [doxorubicin, reference compound]
- shift of DNA bands / intercalation into DNA [4]: shift of the DNA bands with increasing doxorubicin concentration

Structure (SMILES): CN(C)c1cc(O)c(/N=N/c2ccc(C(=O)O)c(O)c2)c(O)c1 [Hydrodabcyl, 4-((4′-(dimethylamino)2′,6′-dihydroxyphenyl)azo)2-hydroxybenzoic acid]
- effect of light exposure on absorption spectrum [1]: no effect on the absorption spectrum
- absorbance under 2-hour continuous irradiation at absorption maximum ([1]; DMSO, 20° C.): constant signal
- dissolution at 5 mM, direct preparation ([2]; 50 mM sodium phosphate pH 5.5, 1 h at 30° C. ultrasonic bath): not completely soluble
- dissolution at 5 mM, direct preparation ([2]; 50 mM sodium phosphate pH 6.0, 1 h at 30° C. ultrasonic bath): Clear solutions
- dissolution at 5 mM, direct preparation ([2]; 50 mM sodium phosphate pH 7.0, 1 h at 30° C. ultrasonic bath): Clear solutions
- dissolution at 5 mM, direct preparation ([2]; 50 mM sodium phosphate pH 8.0, 1 h at 30° C. ultrasonic bath): Clear solutions
- solubility thermodynamic ([2]; aqueous buffer, thermodynamic from solid, buffered aqueous solution at pH 8, read-out: concentration of saturated solution): 25000 µM (≈ 7930 µg/mL)
- solubility [2, 7]: 25400 µM (≈ 8060 µg/mL)
- ε (molar absorbance) (Absorption spectra; 50 mM sodium phosphate buffer pH=8.0, 2×10^−5 M, at 445 nm): 43000 ± 1000 L/mol/cm
- λmax (Absorption spectra; 2×10^−5 M in DMSO at 20° C.): 470 nm
- ε470 (molar absorbance) (Absorption spectra; DMSO): 37000 M⁻¹ cm⁻¹
- ε (molar absorbance) (Absorption spectra; DMSO, 2×10^−5 M, at 470 nm): 37000 ± 1000 L/mol/cm
- ε445 (molar absorbance) (Absorption spectra; aqueous solution): 43000 M⁻¹ cm⁻¹
- λmax (Absorption spectra; aqueous solution, 50 mM sodium phosphate buffer pH=8.0, 20° C.): 445 nm
- influence on embryogenesis [5]: does not influence embryogenesis
- IC50 (CHF): > 100 µM
- solubility ([3]; thermodynamic from solid, Water, 20° C., pH = 4.5, read-out: Solubility): 571 µM (≈ 181 µg/mL)
- appearance in water ([3]; water): clear solution
- IC50 (HT-29): > 50 µM
- IC50 (EaHy.926): > 50 µM
- shift of DNA bands / intercalation into DNA [4]: does not intercalate or bind to the DNA

Structure (SMILES): NCCCC[C@H](N)C(=O)O [L-Lys, reference compound]
- solubility ([3]; water, converted from 5.8 g per 1 kg): about 40 mM
- solubility [6]: 5.8 g per 1 kg of water

Structure (SMILES): CN(C)c1ccc(N=Nc2ccc(C(=O)NCCCCC(N)C(=O)O)cc2)cc1 (stereo not shown) [Lys-dabcyl, reference compound]
- solubility [2]: 7.6 µM and 7.62 µM
